Measured values from patent US6737383B1, “Herbicidal oxadiazolidines” (priority 1999, dated 2004).

Legend:
soybean = experiment: Test B pre/postemergence soybean; format: in vivo, Glycine max; conditions: for Soybean plant response rating: scale of 0 to 10 where 0 is no effect and 10 is complete control
Procedure, shortened: (§1)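 Test chemicals in a non-phytotoxic solvent mixture with surfactant were sprayed preemergence onto planted seeds and postemergence onto plants 2 to 18 cm tall (1- to 4-leaf stage). After twelve to sixteen days in a greenhouse, injury was visually rated against untreated controls from 0 (no effect) to 10 (complete control).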

wheat = experiment: Test B pre/postemergence wheat; format: in vivo, Triticum aestivum; conditions: for Wheat plant response rating: scale of 0 to 10 where 0 is no effect and 10 is complete control
Procedure, shortened: as §1

crabgrass = experiment: Test B pre/postemergence crabgrass; format: in vivo, Digitaria sanguinalis; conditions: for Crabgrass plant response rating: scale of 0 to 10 where 0 is no effect and 10 is complete control
Procedure, shortened: as §1

rape = experiment: Test B pre/postemergence rape; format: in vivo, Brassica napus; conditions: for Rape plant response rating: scale of 0 to 10 where 0 is no effect and 10 is complete control
Procedure, shortened: as §1

giant foxtail = experiment: Test B pre/postemergence giant foxtail; format: in vivo, Setaria faberii; conditions: for Giant foxtail plant response rating: scale of 0 to 10 where 0 is no effect and 10 is complete control
Procedure, shortened: as §1

rice = experiment: Test B flood test rice; format: in vivo, Oryza sativa
Procedure, shortened: (§2)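 Plants were grown to the 2-leaf stage before treatment with test chemical, then held in a greenhouse for twelve to sixteen days. Injury was visually rated against untreated controls on a 0–10 scale, where 0 is no effect and 10 is complete control.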

smallflower flatsedge = experiment: Test B flood test smallflower flatsedge; format: in vivo, Cyperus difformis
Procedure, shortened: as §2

wild oat = experiment: Test B pre/postemergence wild oat; format: in vivo, Avena fatua; conditions: for Wild oats plant response rating: scale of 0 to 10 where 0 is no effect and 10 is complete control
Procedure, shortened: as §1

purple nutsedge = experiment: Test B pre/postemergence purple nutsedge; format: in vivo, Cyperus rotundus; conditions: for Nutsedge plant response rating: scale of 0 to 10 where 0 is no effect and 10 is complete control
Procedure, shortened: as §1

bedstraw = experiment: Test B pre/postemergence bedstraw; format: in vivo, Galium aparine; conditions: Preemergence; for Bedstraw plant response rating: scale of 0 to 10 where 0 is no effect and 10 is complete control
Procedure, shortened: as §1

velvetleaf = experiment: Test B pre/postemergence velvetleaf; format: in vivo, Abutilon theophrasti; conditions: for Velvetleaf plant response rating: scale of 0 to 10 where 0 is no effect and 10 is complete control
Procedure, shortened: as §1

duck salad = experiment: Test B flood test duck salad; format: in vivo, Heteranthera limosa
Procedure, shortened: as §2

blackgrass = experiment: Test B pre/postemergence blackgrass; format: in vivo, Alopecurus myosuroides; conditions: for Blackgrass plant response rating: scale of 0 to 10 where 0 is no effect and 10 is complete control
Procedure, shortened: as §1

morningglory = experiment: Test B pre/postemergence morningglory; format: in vivo, Ipomoea hederacea; conditions: for Morningglory plant response rating: scale of 0 to 10 where 0 is no effect and 10 is complete control
Procedure, shortened: as §1

surinam grass = experiment: Test B pre/postemergence surinam grass; format: in vivo, Brachiaria decumbens; conditions: for B. signalgrass plant response rating: scale of 0 to 10 where 0 is no effect and 10 is complete control
Procedure, shortened: as §1

corn = experiment: Test B pre/postemergence corn; format: in vivo, Zea mays; conditions: for Corn plant response rating: scale of 0 to 10 where 0 is no effect and 10 is complete control
Procedure, shortened: as §1

[1] = Postemergence, Rate 125 g/ha, scale 0 to 10, 0 is no effect, 10 is complete control
[2] = Postemergence, Rate 250 g/ha, scale 0 to 10, 0 is no effect, 10 is complete control
[3] = Preemergence, Rate 62 g/ha, scale 0 to 10 (0 no effect, 10 complete control)
[4] = Rate 500 g/ha, Postemergence, scale 0 to 10, 0 no effect, 10 complete control
[5] = Postemergence (flood test), Rate 125 g/ha, scale 0 to 10, 0 is no effect, 10 is complete control
[6] = Rate 62 g/ha, Postemergence (flood test species), scale of 0 to 10 where 0 is no effect and 10 is complete control
[7] = Rate 62 g/ha, flood test species, Pre-emergence, visual evaluation after twelve to sixteen days
[8] = Rate 125 g/ha, under heading Pre-emergence, flood test species, visual evaluation after twelve to sixteen days
[9] = Rate 250 g/ha, Pre-emergence, flood-test species, scale 0 to 10, 0 is no effect, 10 is complete control
[10] = Rate 500 g/ha, listed under Postemergence (flood test species), scale 0 to 10, 0 no effect, 10 complete control
[11] = Rate 500 g/ha, Pre-emergence, flood test species, scale 0 to 10 (0 no effect, 10 complete control)
[12] = flood test species, listed under Postemergence, Rate 250 g/ha, scale 0 to 10, 0 is no effect, 10 is complete control

CC1CC1n1c(=O)on(C(=O)N(c2ccc(F)cc2F)C(C)C)c1=O (stereo not drawn) [Compound 372]
2: Plant response rating, Soybean (soybean; [2]) | Soybean plant response rating (soybean; Preemergence, Rate 500 g/ha) | Plant response rating, Wheat (wheat; [4]) | Plant response rating, Crabgrass (crabgrass; [1]) | Crabgrass plant response rating (crabgrass; Rate 62 g/ha, Postemergence) | Rape plant response rating (rape; Rate 62 g/ha, Postemergence) | Plant response rating, Rice (rice; [10]) | Plant response rating, Rice (rice; [12]) | Plant response rating, S. Flatsedge (smallflower flatsedge; [5]) | S. Flatsedge plant response rating (smallflower flatsedge; [6]) | Wild oats plant response rating (wild oat; Rate 62 g/ha, Postemergence) | Bedstraw plant response rating (0 to 10 scale) (bedstraw; Rate 125 g/ha) | Plant response rating, Velvetleaf (velvetleaf; [2]) | Plant response rating, Velvetleaf (velvetleaf; [4]) | Morningglory plant response rating (morningglory; Preemergence, Rate 250 g/ha) | Plant response rating, B. signalgrass (surinam grass; [1]) | Plant response rating, Corn (corn; [3]) | Corn plant response rating (0 to 10 scale) (corn; Preemergence, Rate 125 g/ha)
8: Plant response rating, Crabgrass (crabgrass; [2]) | Plant response rating, Crabgrass (crabgrass; [3]) | Plant response rating, S. Flatsedge (smallflower flatsedge; [10]) | Plant response rating, S. Flatsedge (smallflower flatsedge; [12]) | Plant response rating, Wild oats (wild oat; [4]) | B. signalgrass plant response rating (surinam grass; Preemergence, Rate 500 g/ha)
6: Wheat plant response rating (wheat; Preemergence, Rate 500 g/ha) | Velvetleaf plant response rating (velvetleaf; Preemergence, Rate 250 g/ha) | Plant response rating, Ducksalad (duck salad; [5]) | Plant response rating, Ducksalad (duck salad; [10]) | Plant response rating, Ducksalad (duck salad; [12]) | Blackgrass plant response rating (0 to 10 scale) (blackgrass; Preemergence, Rate 125 g/ha) | B. signalgrass plant response rating (surinam grass; Preemergence, Rate 250 g/ha)
5: Plant response rating, Rape (rape; [3]) | Rape plant response rating (0 to 10 scale) (rape; Preemergence, Rate 125 g/ha) | Plant response rating, Rape (rape; [4]) | Plant response rating, Wild oats (wild oat; [2]) | Velvetleaf plant response rating (0 to 10 scale) (velvetleaf; Preemergence, Rate 125 g/ha) | Plant response rating, Blackgrass (blackgrass; [3]) | Morningglory plant response rating (morningglory; Rate 62 g/ha, Postemergence)
1: Plant response rating, Soybean (soybean; [1]) | Soybean plant response rating (soybean; Rate 62 g/ha, Postemergence)
3: Plant response rating, Soybean (soybean; [4]) | Plant response rating, Rape (rape; [2]) | Plant response rating, Velvetleaf (velvetleaf; [3]) | Ducksalad plant response rating (duck salad; [6]) | Morningglory plant response rating (morningglory; Preemergence, Rate 500 g/ha) | Plant response rating, Corn (corn; [4])
0: Plant response rating, Soybean (soybean; [3]) | Soybean plant response rating (0 to 10 scale) (soybean; Preemergence, Rate 125 g/ha) | Soybean plant response rating (soybean; Preemergence, Rate 250 g/ha) | Plant response rating, Wheat (wheat; [1]) | Plant response rating, Wheat (wheat; [2]) | Plant response rating, Wheat (wheat; [3]) | Wheat plant response rating (0 to 10 scale) (wheat; Preemergence, Rate 125 g/ha) | Wheat plant response rating (wheat; Preemergence, Rate 250 g/ha) | Wheat plant response rating (wheat; Rate 62 g/ha, Postemergence) | Plant response rating, Rice (rice; [5]) | Rice plant response rating (rice; [6]) | Plant response rating, Rice (0 to 10 scale, 0 is no effect, 10 is complete control) (rice; [7]) | Rice plant response rating (0 to 10 scale, 0 is no effect, 10 is complete control) (rice; [8]) | Rice plant response rating (rice; [9]) | Rice plant response rating (rice; [11]) | Plant response rating, S. Flatsedge (0 to 10 scale, 0 is no effect, 10 is complete control) (smallflower flatsedge; [7]) | S. Flatsedge plant response rating (0 to 10 scale, 0 is no effect, 10 is complete control) (smallflower flatsedge; [8]) | S. Flatsedge plant response rating (smallflower flatsedge; [9]) | S. Flatsedge plant response rating (smallflower flatsedge; [11]) | Plant response rating, Nutsedge (purple nutsedge; [1]) | Plant response rating, Nutsedge (purple nutsedge; [2]) | Plant response rating, Nutsedge (purple nutsedge; [3]) | Nutsedge plant response rating (0 to 10 scale) (purple nutsedge; Preemergence, Rate 125 g/ha) | Nutsedge plant response rating (purple nutsedge; Preemergence, Rate 250 g/ha) | Nutsedge plant response rating (purple nutsedge; Rate 62 g/ha, Postemergence) | Plant response rating, Nutsedge (purple nutsedge; [4]) | Plant response rating, Bedstraw (bedstraw; Rate 62 g/ha, scale 0 to 10 (0 no effect, 10 complete control)) | Plant response rating, Velvetleaf (velvetleaf; [1]) | Velvetleaf plant response rating (velvetleaf; Rate 62 g/ha, Postemergence) | Plant response rating, Ducksalad (0 to 10 scale, 0 is no effect, 10 is complete control) (duck salad; [7]) | Ducksalad plant response rating (0 to 10 scale, 0 is no effect, 10 is complete control) (duck salad; [8]) | Ducksalad plant response rating (duck salad; [9]) | Ducksalad plant response rating (duck salad; [11]) | Plant response rating, Morningglory (morningglory; [3]) | Morningglory plant response rating (0 to 10 scale) (morningglory; Preemergence, Rate 125 g/ha) | Plant response rating, B. signalgrass (surinam grass; [3]) | B. signalgrass plant response rating (surinam grass; Rate 62 g/ha, Postemergence) | Plant response rating, Corn (corn; [1]) | Plant response rating, Corn (corn; [2]) | Corn plant response rating (corn; Rate 62 g/ha, Postemergence)
9: Crabgrass plant response rating (0 to 10 scale) (crabgrass; Preemergence, Rate 125 g/ha) | Plant response rating, Crabgrass (crabgrass; [4]) | Plant response rating, Giant foxtail (giant foxtail; [1]) | Plant response rating, Giant foxtail (giant foxtail; [2]) | Plant response rating, Giant foxtail (giant foxtail; [4]) | Wild oats plant response rating (wild oat; Preemergence, Rate 250 g/ha) | Corn plant response rating (corn; Preemergence, Rate 250 g/ha) | Corn plant response rating (corn; Preemergence, Rate 500 g/ha)
4: Giant foxtail plant response rating (giant foxtail; Rate 62 g/ha, Postemergence) | Plant response rating, Wild oats (wild oat; [1]) | Plant response rating, Wild oats (wild oat; [3]) | Plant response rating, Blackgrass (blackgrass; [1]) | Blackgrass plant response rating (blackgrass; Rate 62 g/ha, Postemergence) | Plant response rating, B. signalgrass (surinam grass; [2]) | B. signalgrass plant response rating (0 to 10 scale, 0 is no effect, 10 is complete control) (surinam grass; Preemergence, Rate 125 g/ha)
7: Wild oats plant response rating (0 to 10 scale) (wild oat; Preemergence, Rate 125 g/ha) | Velvetleaf plant response rating (velvetleaf; Preemergence, Rate 500 g/ha) | Plant response rating, Blackgrass (blackgrass; [2]) | Plant response rating, Morningglory (morningglory; [1]) | Plant response rating, Morningglory (morningglory; [2]) | Plant response rating, B. signalgrass (surinam grass; [4])
10: Crabgrass plant response rating (crabgrass; Preemergence, Rate 250 g/ha) | Crabgrass plant response rating (crabgrass; Preemergence, Rate 500 g/ha) | Rape plant response rating (rape; Preemergence, Rate 250 g/ha) | Rape plant response rating (rape; Preemergence, Rate 500 g/ha) | Plant response rating, Giant foxtail (giant foxtail; [3]) | Giant foxtail plant response rating (0 to 10 scale) (giant foxtail; Preemergence, Rate 125 g/ha) | Giant foxtail plant response rating (giant foxtail; Preemergence, Rate 250 g/ha) | Giant foxtail plant response rating (giant foxtail; Preemergence, Rate 500 g/ha) | Wild oats plant response rating (wild oat; Preemergence, Rate 500 g/ha) | Nutsedge plant response rating (purple nutsedge; Preemergence, Rate 500 g/ha) | Bedstraw plant response rating (bedstraw; Rate 250 g/ha) | Bedstraw plant response rating (bedstraw; Rate 500 g/ha) | Blackgrass plant response rating (blackgrass; Preemergence, Rate 250 g/ha) | Blackgrass plant response rating (blackgrass; Preemergence, Rate 500 g/ha) | Plant response rating, Blackgrass (blackgrass; [4]) | Plant response rating, Morningglory (morningglory; [4])
